Our source for the IC50 values is patent US20240124442A1, “TRICYCLIC-AMIDO-BICYCLIC PRMT5 INHIBITORS” (AMGEN INC., priority 2021, published 2024).

A word on the IC50: it is the concentration that gives 50% inhibition.

One assay relates to HCT116 MTAP null cells. Description: HCT116 MTAP null cell line proliferation / cell viability (CellTiter-Glo, 6 days). The class given is cell-based. Particulars: 144 h; HCT116 MTAP null cells, 6 days treatment, CellTiter-Glo cell viability; read-out: HCT-116 MTAP null IC50. In a few lines: (§1)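 Viability read by CellTiter-Glo luminescence after 6 days of compound treatment of HCT116 WT and MTAP-null cells (RPMI 1640, 10% FBS). Dose series were 1:3 steps from 1 or 10 μM (8–9 points), or 1:2 steps from 10 or 50 μM (22 points). IC50 from 4-parameter logistic or fixed-slope sigmoidal fit.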
Background: Cellular ATP, detected with luciferase, serves as a proxy for viable cell number.

The test system of a further assay is HCT116 WT cells. Briefly: HCT116 WT (parent) cell line proliferation / cell viability (CellTiter-Glo, 6 days). The assay is classed as cell-based. The note with it: Homo sapiens, HCT-116, 144 h, 6 days treatment. In a few lines:
as §1

On to `Cc1cc2nc(N)c3c(c2cc1C(=O)N(C)[C@@H]1COCc2nc(C(F)(F)F)ccc21)COC3` [Example 277, 4-amino-N,7-dimethyl-N-((5S)-2-(trifluoromethyl)-5,8-dihydro-6H-pyrano[3,4-b]pyridin-5-yl)-1,3-dihydrofuro[3,4-c]quin-oline-8-carboxamide], for which the IC50 amounted to 5 nM in the assay with HCT116 MTAP null cells and 202 nM with HCT116 WT cells.

As to `CN(C(=O)c1cc2c3c(c(N)nc2cc1C(F)(F)F)COC3)[C@@H]1COCc2nc(C(F)(F)F)ccc21` [Example 278, 4-amino-N-methyl-7-(trifluoro-methyl)-N-((5S)-2-(trifluoro-methyl)-5,8-dihydro-6H-pyrano[3,4-b]pyridin-5-yl)-1,3-dihydrofuro[3,4-c]quinoline-8-carboxamide], the IC50 was 56 nM with HCT116 MTAP null cells and 4290 nM in the assay on HCT116 WT cells.

With `CN(C(=O)c1ccc2nc(N)c3ccncc3c2c1)[C@@H]1COCc2nc(C(F)(F)F)ccc21` [Example 279, 5-amino-N-methyl-N-((5S)-2-(trifluoromethyl)-5,8-dihydro-6H-pyrano[3,4-b]pyridin-5-yl)benzo[c][2,6]naphthyridine-9-carboxamide], the figures for the concentration for half-maximal inhibition (IC50) with HCT116 MTAP null cells and in the assay on HCT116 WT cells were 17 nM and 706 nM, respectively.

As to `CN(C(=O)c1ccc2nc(N)c3ncncc3c2c1)[C@@H]1COCc2nc(C(F)(F)F)ccc21` [Example 280, 5-amino-N-methyl-N-((5S)-2-(trifluoromethyl)-5,8-dihydro-6H-pyrano[3,4-b]pyridin-5-yl)pyrimido[4,5-c]quinoline-9-carboxamide], the IC50 in the assay with HCT116 MTAP null cells was found to be 461 nM; in the assay on HCT116 WT cells, 5050 nM.

Take `CN(C(=O)c1cc2c(cn1)nc(N)c1ccncc12)[C@@H]1COCc2nc(C(F)(F)F)ccc21` [Example 281, 5-amino-N-methyl-N-((5S)-2-(trifluoromethyl)-5,8-dihydro-6H-pyrano[3,4-b]pyridin-5-yl)pyrido[4,3-c][1,7]naph-thyridine-9-carboxamide]: the values for the IC50 in the assay on HCT116 MTAP null cells and with HCT116 WT cells were 23 nM and 611 nM, respectively.

With `CN(C(=O)c1cc2c(cn1)nc(N)c1ncncc12)[C@@H]1COCc2nc(C(F)(F)F)ccc21` [Example 282, 5-amino-N-methyl-N-((5S)-2-(trifluoromethyl)-5,8-dihydro-6H-pyrano[3,4-b]pyridin-5-yl)-pyrimido[4,5-c][1,7]naphthyr-idine-9-carboxamide], the IC50 amounted to 475 nM in the assay with HCT116 MTAP null cells and 5970 nM in the assay with HCT116 WT cells.

As to `COc1ccc2c(n1)COC[C@H]2N(C)C(=O)c1ccc2nc(N)c3cnn(C)c3c2c1` [Example 283, 4-amino-N-((5S)-2-methoxy-5,8-dihydro-6H-pyrano[3,4-b]-pyridin-5-yl)-N,1-dimethyl-1H-pyrazolo[4,3-c]quinoline-8-carboxamide], the results for the IC50 with HCT116 MTAP null cells and in the assay on HCT116 WT cells were 21 nM and 1360 nM, respectively.

Take `COc1ccc2c(n1)COC[C@@H]2N(C)C(=O)c1ccc2nc(N)c3cnn(C)c3c2c1` [Example 284, 4-amino-N-((5R)-2-methoxy-5,8-dihydro-6H-pyrano[3,4-b]-pyridin-5-yl)-N,1-dimethyl-1H-pyrazolo[4,3-c]quinoline-8-carboxamide]: the IC50 in the assay on HCT116 MTAP null cells is 674 nM; in the assay on HCT116 WT cells it was 15600 nM.

Consider `CCOc1ncc2c(n1)COC[C@H]2N(C)C(=O)c1ccc2nc(N)c3cnn(C)c3c2c1` [Example 285, 4-amino-N-((5S)-2-ethoxy-5,8-dihydro-6H-pyrano[3,4-d]-pyrimidin-5-yl)-N,1-dimethyl-1H-pyrazolo[4,3-c]quinoline-8-carboxamide], for which the values for the IC50 in the assay with HCT116 MTAP null cells and in the assay on HCT116 WT cells were 974 nM and 31300 nM, respectively.

On to `CN(C(=O)c1ccc2nc(N)c3cnn(C)c3c2c1)[C@@H]1COCc2nc(C(F)(F)F)ccc21` [Example 286, 4-amino-N,1-dimethyl-N-((5S)-2-(trifluoromethyl)-5,8-dihydro-6H-pyrano[3,4-b]pyridin-5-yl)-1H-pyrazolo[4,3-c]quinoline-8-carboxamide], for which the 50% inhibitory concentration (IC50) in the assay on HCT116 MTAP null cells is 8 nM; in the assay on HCT116 WT cells, 619 nM.

With `CN(C(=O)c1cc2c(cn1)nc(N)c1cnn(C)c12)[C@@H]1COCc2cc(C(F)(F)F)ccc21` [Example 288, 4-amino-N,1-dimethyl-N-((4S)-7-(trifluoromethyl)-3,4-dihydro-1H-2-benzopyran-4-yl)-1H-pyrazolo[4,3-c][1,7]naphthyr-idine-8-carboxamide], the half-maximal inhibitory concentration (IC50) in the assay with HCT116 MTAP null cells was found to be 6 nM; with HCT116 WT cells it was 72 nM.

For `CN(C(=O)c1cc2c(cn1)nc(N)c1cnn(C)c12)[C@@H]1COCc2nc(C(F)(F)F)ccc21` [Example 289, 4-amino-N,1-dimethyl-N-((5S)-2-(trifluoromethyl)-5,8-dihydro-6H-pyrano[3,4-b]pyridin-5-yl)-1H-pyrazolo[4,3-c][1,7]naph-thyridine-8-carboxamide], the IC50 is 16 nM in the assay on HCT116 MTAP null cells and 357 nM in the assay with HCT116 WT cells.

As for `CN(C(=O)c1cc2c(cc1F)nc(N)c1cnn(C)c12)C1CCOc2nc(C(F)(F)F)ccc21` [Example 291, 4-amino-7-fluoro-N,1-dimethyl-N-((4R)-7-(trifluoromethyl)-3,4-dihydro-2H-pyrano[2,3-b]-pyridin-4-yl)-1H-pyrazolo[4,3-c]quinoline-8-carboxamide and 4-amino-7-fluoro-N,1-dimethyl-N-((4S)-7-(trifluoromethyl)-3,4-dihydro-2H-pyrano[2,3-b]pyr-idin-4-yl)-1H-pyrazolo[4,3-c]-quinoline-8-carboxamide], the half-inhibitory concentration (IC50) in the assay with HCT116 MTAP null cells was determined as 169 nM; in the assay with HCT116 WT cells, 10500 nM.

`CN(C(=O)c1cc2c(cc1F)nc(N)c1cnn(C)c12)[C@@H]1COCc2cc(C(F)(F)F)ncc21` [Example 292, 4-amino-7-fluoro-N,1-dimethyl-N-((4S)-7-(trifluoromethyl)-3,4-dihydro-1H-pyrano[4,3-c]pyr-idin-4-yl)-1H-pyrazolo[4,3-c]-quinoline-8-carboxamide]: the results for the IC50 with HCT116 MTAP null cells and in the assay with HCT116 WT cells were 7 nM and 224 nM, respectively.

Turning to `CN(C(=O)c1cc2c(cc1F)nc(N)c1cnn(C)c12)[C@H]1COCc2cc(C(F)(F)F)ncc21` [Example 293, 4-amino-7-fluoro-N,1-dimethyl-N-((4R)-7-(trifluoromethyl)-3,4-dihydro-1H-pyrano[4,3-c]-pyridin-4-yl)-1H-pyrazolo[4,3-c]quinoline-8-carboxamide], the IC50 in the assay on HCT116 MTAP null cells was determined as 305 nM; with HCT116 WT cells it was 7210 nM.

`CN(C(=O)c1cc2c(cc1Cl)nc(N)c1cnn(C)c12)[C@@H]1COCc2cc(C(F)(F)F)ccc21` [Example 294, 4-amino-7-chloro-N,1-dimethyl-N-((4S)-7-(trifluoromethyl)-3,4-dihydro-1H-2-benzopyran-4-yl)-1H-pyrazolo[4,3-c]quinoline-8-carboxamide]: the IC50 in the assay with HCT116 MTAP null cells came out at 3 nM; with HCT116 WT cells, 12 nM.

For the compound `CN(C(=O)c1cc2c(cc1Cl)nc(N)c1cnn(C)c12)[C@@H]1COCc2nc(C(F)(F)F)ccc21` [Example 295, 4-amino-7-chloro-N,1-dimethyl-N-((5S)-2-(trifluoromethyl)-5,8-dihydro-6H-pyrano[3,4-b]-pyridin-5-yl)-1H-pyrazolo[4,3-c]quinoline-8-carboxamide], the half-inhibitory concentration (IC50) with HCT116 MTAP null cells came to 2 nM; in the assay with HCT116 WT cells, 34 nM.

Turning to `CN(C(=O)c1cc2c(nc1Cl)nc(N)c1cnn(C)c12)[C@@H]1COCc2cc(C(F)(F)F)ccc21` [Example 296, 4-amino-7-chloro-N,1-dimethyl-N-((4S)-7-(trifluoromethyl)-3,4-dihydro-1H-2-benzopyran-4-yl)-1H-pyrazolo[4,3-c][1,8]naph-thyridine-8-carboxamide], the IC50 in the assay on HCT116 MTAP null cells was 8 nM; in the assay on HCT116 WT cells, 159 nM.
